# In BindingDB's records for doi:10.7270/Q2D798VP (Broad Institute, 2009):
# Target: T1, Zinc finger protein mex-5 (Caenorhabditis elegans, UniProt Q9XUB2)
# T1 sequence (Q9XUB2 whole entry): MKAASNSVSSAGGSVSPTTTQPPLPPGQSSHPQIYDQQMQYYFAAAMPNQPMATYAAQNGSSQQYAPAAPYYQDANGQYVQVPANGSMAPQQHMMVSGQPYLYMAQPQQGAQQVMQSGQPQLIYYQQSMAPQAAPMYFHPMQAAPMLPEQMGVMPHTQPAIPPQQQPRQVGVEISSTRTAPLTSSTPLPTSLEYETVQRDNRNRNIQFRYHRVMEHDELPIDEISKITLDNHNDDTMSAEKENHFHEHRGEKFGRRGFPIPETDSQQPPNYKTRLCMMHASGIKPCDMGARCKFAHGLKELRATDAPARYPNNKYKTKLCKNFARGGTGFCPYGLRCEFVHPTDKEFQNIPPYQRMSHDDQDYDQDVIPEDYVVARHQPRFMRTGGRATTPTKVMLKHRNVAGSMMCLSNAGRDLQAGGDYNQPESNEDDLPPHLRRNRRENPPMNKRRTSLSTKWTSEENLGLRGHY
# Experiment: MEX-5/TCR-2 RNA interaction inhibitors, dose response, biochemical, C. elegans, fluorescence polarization (AID 1960)
row,SMILES,EC50 [µM]
1,"COc1cccc(C2C3CN(C)CCC3=C(C#N)C(=N)C2(C#N)C#N)c1OC (configuration not stated) [6-Amino-8-(2,3-dimethoxy-phenyl)-2-methyl-2,3,8,8a-tetrahydro-1H-isoquinoline-5,7,7-tricarbonitrile]",8.49
2,Cc1cc(=O)n(-c2ccc(C(=O)O)c(N)c2)[nH]1 [MLS000690508],38.3
3,"Oc1csc(N=NCc2cccs2)n1 [2-[2-(thiophen-2-ylmethylidene)hydrazinyl]-1,3-thiazol-4-one]",> 300
4,Cc1nnc(=O)[nH]c1N=NCC1C=CC(=O)C([N+](=O)[O-])=C1 (configuration not stated) [MLS000585487],65.5
5,COc1ccccc1-n1c(O)c2n(-c3ccc(C)cc3)[nH]c(C(=O)c3ccccc3)c-2c1=O,14.3
6,"COc1ccc(C2C3=C(CC(C)(C)CC3=O)OC(=N)C2C#N)cc1 (configuration not stated) [2-amino-4-(4-methoxyphenyl)-7,7-dimethyl-5-oxo-6,8-dihydro-4H-1-benzopyran-3-carbonitrile]",> 300
7,Cc1cc(=O)[nH]c(N=NCc2ccc(O)c(O)c2)n1 [MLS001194906],125
8,"N#CC1C(=N)C2=C(N3CCCCC3)CCCC2C1(C#N)C#N (configuration not stated) [3-Amino-4-piperidin-1-yl-5,6,7,7a-tetrahydro-indene-1,1,2-tricarbonitrile]",77.1
9,"COc1ccc(OC)c(N2C(=O)NC(=O)C(=Cc3c[nH]c4ccccc34)C2=O)c1 [(5E)-1-(2,5-dimethoxyphenyl)-5-(1H-indol-3-ylmethylene)pyrimidine-2,4,6(1H,3H,5H)-trione]",> 300
10,"Cc1ccc(N=CCC(=O)c2sc(-c3ccccc3)nc2C)cc1 [(E)-1-(4-methyl-2-phenyl-1,3-thiazol-5-yl)-3-(4-toluidino)-2-propen-1-one]",> 300
11,Cc1ccc(Cl)c2c1NC(=O)/C2=C1/NC(=S)NC1=O,0.294
12,"CN1CCC2=C(C#N)C(=N)C(C#N)(C#N)C(c3cccc(Cl)c3Cl)C2C1 (configuration not stated) [6-azanyl-8-[2,3-bis(chloranyl)phenyl]-2-methyl-1,3,8,8a-tetrahydroisoquinoline-5,7,7-tricarbonitrile]",13.5
13,COc1ccc(N=C(C)c2sc3ccccc3c2O)cc1 [(2Z)-2-[1-(4-methoxyanilino)ethylidene]-1-benzothiophen-3-one],17.7
14,C=c1[nH]n(-c2cccc(C(=O)O)c2)c(=O)c1=CC=Cc1ccco1 [SMR000113614],23.7
15,"COc1ccc(OC)c(C2C(C(=O)c3ccco3)C(=O)C(=O)N2CCN2CCOCC2)c1 (configuration not stated) [2-(2,5-dimethoxyphenyl)-3-(furan-2-carbonyl)-4-hydroxy-1-(2-morpholin-4-ylethyl)-2H-pyrrol-5-one]",> 300
16,"COc1ccc(C(=O)CC=Nc2ccc([N+](=O)[O-])cc2C)c(OC)c1 [(E)-1-(2,4-dimethoxyphenyl)-3-(2-methyl-4-nitro-anilino)prop-2-en-1-one]",> 300
17,O=C(N[N-][CH+]c1cc([N+](=O)[O-])ccc1N1CCCC1)c1ccccn1 [MLS000684285],70.5
18,"CC(N=Nc1ccc([N+](=O)[O-])cc1[N+](=O)[O-])c1cc2c(ccc3ccccc32)oc1=O (configuration not stated) [2-[1-[(2,4-dinitrophenyl)hydrazinylidene]ethyl]-3-benzo[f][1]benzopyranone]",> 300
19,CCN(CC)c1ccc(C=NC(C#N)C(=N)C#N)cc1 (configuration not stated) [SMR000023871],114
20,COc1ccccc1N1C(=O)NC(=O)C(=Cc2c[nH]c3ccccc23)C1=O [SMR000495900],> 300
21,"O=C(NN=CC1=CC(=O)C(=O)CC1)NN=CC1=CC(=O)C(=O)CC1 [1,3-bis[[(Z)-(3-hydroxy-4-oxocyclohexa-2,5-dien-1-ylidene)methyl]amino]urea]",4.86
22,C(=NNC(=Nc1ccccc1)c1ccccn1)c1ccccn1 [SMR000174637],94.4
23,"Cc1cc(C=NNC(=O)c2cccc(N(C)C)c2)c(C)n1-c1cc(C(=O)O)cc(C(=O)O)c1 [5-[3-((E)-{[3-(dimethylamino)benzoyl]hydrazono}methyl)-2,5-dimethyl-1H-pyrrol-1-yl]isophthalic acid]",143
24,Cc1ccccc1NN=C1C(=O)N(C)c2ccccc21 [MLS001203477],> 300
25,"N#CC1C(=N)OC2=C(C(=O)CCC2)C1c1cc2c(cc1Br)OCO2 (configuration not stated) [2-azanyl-4-(6-bromanyl-1,3-benzodioxol-5-yl)-5-oxidanylidene-4,6,7,8-tetrahydrochromene-3-carbonitrile]",> 300
26,Cc1[nH]n(C(N)=S)c(=O)c1N=Nc1ccc(S(N)(=O)=O)cc1 [3-methyl-5-oxidanylidene-4-[(4-sulfamoylphenyl)diazenyl]-4H-pyrazole-1-carbothioamide],8.86

row,SMILES,EC50 [µM]
1,"O=C1NC(=O)N(CCc2ccccc2)C(=O)C1=CNNC(=O)c1ccccc1O [2-hydroxy-N'-[(E)-[2,4,6-trioxo-1-(2-phenylethyl)-1,3-diazinan-5-ylidene]methyl]benzohydrazide]",201
2,N#CC1C(=N)OC2=C(C(=O)CCC2)C1c1cc2c(cc1Cl)OCO2 (configuration not stated) [MLS001183950],> 300
3,"COc1ccc(N=C(C(=C(Cl)C(Cl)Cl)[N+](=O)[O-])n2nnc3ccccc32)cc1 [N-[(1E)-1-(1-benzotriazolyl)-3,4,4-trichloro-2-nitrobuta-1,3-dienyl]-4-methoxyaniline]",49.1
4,C=CCOc1cccc(C2C(C(=O)c3ccco3)C(=O)C(=O)N2Cc2ccco2)c1 (configuration not stated) [1-(2-furanylmethyl)-3-[2-furanyl(oxo)methyl]-4-hydroxy-2-(3-prop-2-enoxyphenyl)-2H-pyrrol-5-one],> 300
5,"CCN(CC)CCN1C(=O)C(=O)C(C(=O)c2cc3cccc(OC)c3o2)C1c1ccc(F)cc1 (configuration not stated) [1-(2-Diethylamino-ethyl)-5-(4-fluoro-phenyl)-3-hydroxy-4-(7-methoxy-benzofuran-2-carbonyl)-1,5-dihydr o-pyrrol-2-one]",> 300
6,Cc1ccc(N/N=C2/C(=O)Nc3ccc(F)cc32)cc1 [5-fluoro-3-[2-(4-methylphenyl)hydrazono]indolin-2-one],> 300
7,Cc1cc(O)c(C(C)C)cc1Nc1csc(=O)[nH]1 [SMR000034713],34.6
8,O=C1c2cccc3cccc(c23)C(=O)C1[N+](=O)[O-] [2-nitro-3-oxidanyl-phenalen-1-one],9.23
9,"Cc1cc(N2C(=O)C(=O)C(C(=O)c3cc4ccccc4o3)C2c2ccc([N+](=O)[O-])cc2)no1 (configuration not stated) [3-(1-benzofuran-2-carbonyl)-4-hydroxy-1-(5-methyl-1,2-oxazol-3-yl)-2-(4-nitrophenyl)-2H-pyrrol-5-one]",45.4
10,"COc1cc(S(=O)(=O)Nc2ccc(C)cc2)ccc1NC=C1C(=O)N(C)C(=O)C(C#N)=C1C [4-[[(Z)-(5-cyano-1,4-dimethyl-2,6-dioxopyridin-3-ylidene)methyl]amino]-3-methoxy-N-(4-methylphenyl)benzenesulfonamide]",23.9
11,CCOc1ccc(N=C(C(=C(Cl)C(Cl)Cl)[N+](=O)[O-])n2cncn2)cc1 [MLS000519210],45.4
12,COc1cccc(C2C3=C(CC(c4ccco4)CC3=O)OC(=N)C2C#N)c1OCc1ccc(F)cc1 (configuration not stated) [SMR000021029],> 300
13,"O=C1N=c2ccc(Br)cc2=C1NNc1nnn[nH]1 [5-bromanyl-3-[2-(2H-1,2,3,4-tetrazol-5-yl)hydrazinyl]indol-2-one]",5.18
14,COc1ccc(C=C2CCCC(C(=O)C(F)(F)F)C2=O)cc1 (configuration not stated) [SMR000142699],41.4
15,CS(=O)(=O)Nc1nc2n(n1)C(c1ccccc1)CC(c1ccc(Br)cc1)=N2 (configuration not stated),6.39
16,"COc1cc(C2C3=C(CCCC3=O)OC(=N)C2C#N)ccc1OC(=O)N1CCOCC1 (configuration not stated) [4-(2-amino-3-cyano-5-oxo-5,6,7,8-tetrahydro-4H-chromen-4-yl)-2-methoxyphenyl morpholine-4-carboxylate]",> 300
17,"Cc1sc2ncnc(N=NC(C)c3ccccn3)c2c1C (configuration not stated) [5,6-dimethyl-N-(1-pyridin-2-ylethylideneamino)thieno[2,3-d]pyrimidin-4-amine]",46.7
18,"Cc1nnc(SC(=Cc2ccc(-c3ccc(Cl)cc3)o2)C(=O)O)[nH]1 [(E)-3-[5-(4-chlorophenyl)furan-2-yl]-2-[(5-methyl-1H-1,2,4-triazol-3-yl)sulfanyl]prop-2-enoic acid]",29.6
19,COc1cc(C2c3c(-c4cccnc4)n[nH]c3OC(=N)C2C#N)cc(Br)c1O (configuration not stated),> 300
20,"C=CCOc1cccc(C2C(C(=O)c3ccc(C)o3)C(=O)C(=O)N2c2nccs2)c1 (configuration not stated) [3-(5-methylfuran-2-yl)carbonyl-4-oxidanyl-2-(3-prop-2-enoxyphenyl)-1-(1,3-thiazol-2-yl)-2H-pyrrol-5-one]",0.851
21,"CCCSc1nnc(N2C(=O)C(=O)C(C(=O)c3ccco3)C2c2ccccc2F)s1 (configuration not stated) [2-(2-fluorophenyl)-3-(furan-2-carbonyl)-4-hydroxy-1-(5-propylsulfanyl-1,3,4-thiadiazol-2-yl)-2H-pyrrol-5-one]",> 300
22,CCOc1cc(C2C(C(C)=O)=C(C)OC(=N)C2C#N)cc(Br)c1O (configuration not stated) [2-azanyl-4-(3-bromanyl-5-ethoxy-4-oxidanyl-phenyl)-5-ethanoyl-6-methyl-4H-pyran-3-carbonitrile],12.3
23,"C/N=c1\ccc2nc3ccccc3n(C)c-2c1 [N,10-dimethyl-2-phenazin-10-iumamine;perchlorate]",14.8
24,Cc1cc(C(=O)NN=CC2C=C(Cl)C=C([N+](=O)[O-])C2=O)[nH]n1 (configuration not stated) [SMR000414694],> 300
25,COc1ccc(N2C(=O)NC(=O)C(=Cc3cn(C)c4ccccc34)C2=O)cc1 [MLS001196573],1.15
26,COc1ccc(C2CC(c3ccc(Br)s3)=Nc3ncnn32)cc1OC (configuration not stated) [SMR000032927],6.36
